Values after ≈ are worked out from the molar mass of the structure shown.

71 molecules from PubChem BioAssay AID1996 can be followed below.

For this series the following is noted: buffer; pH 7.4; 200.0 µM.
`CC1CCN(C(=S)NC(=O)c2cccs2)CC1` showed a kinetic solubility of more than 40.3 µg/mL.

`CC(C)c1ccc(NC(=O)C2CC3CCC2C3)cc1` (stereo unspecified) had a solubility (kinetic) of 2.1 µg/mL (≈ 8.16 µM).

Molecule `COc1ccc(COC(=O)C2=C(C)NC(=O)NC2c2ccc(F)cc2)cc1` (stereo unspecified) yielded a kinetic solubility of 3 µg/mL (≈ 8.1 µM).

`CCS(=O)c1scc(-c2ccc(Cl)cc2)c1C#N` (stereo unspecified) displayed a kinetic solubility of 20.9 µg/mL (≈ 70.7 µM).

The molecule `N#Cc1ccc(/C=C\c2nccc3c2[nH]c2ccccc23)cc1` yielded a solubility (kinetic) of 1.3 µg/mL (≈ 4.4 µM).

With `O=C(/C=C/c1ccc(Cl)cc1)Nc1cc(S(=O)(=O)N2CCOCC2)ccc1N1CCOCC1`, the kinetic solubility worked out at 5.9 µg/mL (≈ 12 µM).

With `CC(C)c1ccccc1NC(=S)NC(=O)C1CCCCC1`, the kinetic solubility is 0.9 µg/mL (≈ 2.96 µM).

For `COc1ccc(OC)c(N=C(N)N=C(N)N)c1`, the kinetic solubility is more than 35.6 µg/mL.

Take `Cn1c(=NC(=O)COc2ccccc2)sc2ccccc21`: the solubility (kinetic) was 0.8 µg/mL (≈ 2.68 µM).

In the case of `CC(C)CC1NC(=O)N(CC(=O)N(C)C2CCCCC2)C1=O` (stereo unspecified), the kinetic solubility was more than 46.4 µg/mL.

On to `CC(=O)c1ccccc1NC(=O)CSc1nc2ccccc2c(=O)n1CCCN1CCOCC1`, for which the kinetic solubility is 1.8 µg/mL (≈ 3.75 µM).

For `CCCc1cc(=O)[nH]c(SCC(=O)Nc2ccc(C)cc2)n1`, the solubility (kinetic) was 3.1 µg/mL (≈ 9.77 µM).

As to `CCOc1ccc(Cn2c(=O)oc3ccccc32)cc1`, the solubility (kinetic) is less than 0.6 µg/mL.

Take `O=C(CN1C(=O)c2ccccc2S1(=O)=O)NCc1ccco1`: the solubility (kinetic) is more than 48 µg/mL.

Take `CC1(C(=O)N2CCN(c3ccccc3)CC2)CC1(Cl)Cl` (stereo unspecified): the solubility (kinetic) was 46.8 µg/mL (≈ 149 µM).

In turn, `CC(=O)C1=C(O)C(=O)N(c2ccc(O)cc2)C1c1ccc(F)cc1` (stereo unspecified) returned a kinetic solubility of more than 49.1 µg/mL.

`COc1ccc2[nH]cc(CCNC(=O)C3CCCCC3)c2c1` had a solubility (kinetic) of 42.7 µg/mL (≈ 142 µM).

`O=[N+]([O-])c1cccc(-c2nc(-c3ccccn3)no2)c1` showed a kinetic solubility of 6.4 µg/mL (≈ 23.9 µM).

`CCOC(=O)c1cc(-c2csc(COc3ccccc3Cl)n2)on1` registered a solubility (kinetic) of less than 0.4 µg/mL.

The molecule `COc1ccc(NC(=O)COC(=O)C2CC2)c(OC)c1` returned a kinetic solubility of more than 41.9 µg/mL.

In turn, `COC1=C/C(=C/c2c(O)c(C#N)c3ccccn23)C=CC1=O` showed a solubility (kinetic) of 17.5 µg/mL (≈ 59.9 µM).

Regarding `CCCCOc1ccc(CON(C(C)=O)C(C)=O)cc1Cl`, the kinetic solubility came out at 2.6 µg/mL (≈ 8.29 µM).

Molecule `CCOc1ccc(N2C(=O)CC(NCc3ccc(S(N)(=O)=O)cc3)C2=O)cc1` (stereo unspecified) showed a kinetic solubility of 48.7 µg/mL (≈ 121 µM).

Regarding `COCCNC(=O)c1ccccc1NC(=O)c1cccc([N+](=O)[O-])c1C`, the solubility (kinetic) worked out at 53.5 µg/mL (≈ 150 µM).

As to `Cc1ccc(N2C(=O)Cc3ccccc3C2=O)cc1`, the solubility (kinetic) is more than 37.7 µg/mL.

In the case of `Clc1ccc(N2CCN(Cc3ccc(Br)o3)CC2)cc1`, the solubility (kinetic) was determined as 1.4 µg/mL (≈ 3.94 µM).

Turning to `O=C(CNC(=O)c1ccco1)OCC(=O)c1ccc([N+](=O)[O-])cc1`, the solubility (kinetic) is more than 49.8 µg/mL.

For the molecule `Cc1ccccc1Nc1ccc2nonc2c1[N+](=O)[O-]`, the kinetic solubility stood at 0.8 µg/mL (≈ 2.96 µM).

`CCOC(=O)c1cc(-c2csc(Nc3c(C)cc(C)cc3C)n2)on1` displayed a solubility (kinetic) of 0.4 µg/mL (≈ 1.12 µM).

`COC(=O)[C@H](C)NC(=O)NCc1ccc(S(N)(=O)=O)cc1` showed a kinetic solubility of more than 47.3 µg/mL.

Turning to `CC(C)C(=O)O/N=C1\CCS(=O)(=O)c2sccc21`, the kinetic solubility is more than 43.1 µg/mL.

Molecule `C=CCOc1c(Cl)cc(CNc2nccs2)cc1OC` had a solubility (kinetic) of 38.1 µg/mL (≈ 123 µM).

The molecule `Cc1c(C(=O)N2CCCC(C(F)(F)F)C2)oc2ccccc12` (stereo unspecified) displayed a kinetic solubility of 31.8 µg/mL (≈ 102 µM).

The molecule `O=C(CSc1nc(-c2ccccc2)ns1)N1CCOCC1` registered a solubility (kinetic) of 1 µg/mL (≈ 3.11 µM).

Regarding `COc1ccc(NC(=O)c2cc(-c3ccc(C)cc3)on2)cc1OC`, the solubility (kinetic) was less than 0.4 µg/mL.

Consider `COc1ccc(C(C)C)cc1S(=O)(=O)NC1CCCC1`, for which the kinetic solubility came out at 3 µg/mL (≈ 10.1 µM).

The molecule `Cc1ccc(NC2=CC(=O)CC(C)(C)C2)cc1F` yielded a solubility (kinetic) of 31.5 µg/mL (≈ 127 µM).

In turn, `CC1(C)CC(=O)N(c2ccc(C#N)cc2)C(=O)C1` displayed a kinetic solubility of more than 36.3 µg/mL.

As for `O=C(Nc1ccc(F)cc1)NC1CCN(Cc2c(F)cccc2Cl)CC1`, the solubility (kinetic) was 2.8 µg/mL (≈ 7.37 µM).

Molecule `Cc1cccc(NC(=O)[C@@H]2CCCN2S(=O)(=O)c2ccc(Cl)cc2)c1` displayed a kinetic solubility of 37.9 µg/mL (≈ 100 µM).

Take `CC(C)C[C@H]1C(=O)N2CCCC2[C@]2(O)O[C@](NC(=O)[C@@H]3C=C4c5cccc6[nH]cc(c56)CC4N(C)C3)(C(C)C)C(=O)N12` (stereo partly specified): the solubility (kinetic) came out at 24.1 µg/mL (≈ 41.9 µM).

For the molecule `Nc1ccccc1C(=O)N1CCC(O)(c2ccc(Cl)cc2)CC1`, the kinetic solubility was determined as 23.9 µg/mL (≈ 72.2 µM).

With `CC(C)=CC(=O)OCC(=O)Nc1ccc(SC(F)F)cc1`, the solubility (kinetic) was found to be 10.6 µg/mL (≈ 33.6 µM).

As to `O=C(COC(=O)c1ccco1)Nc1cc(S(=O)(=O)N2CCCCC2)ccc1Cl`, the kinetic solubility came to 6.7 µg/mL (≈ 15.7 µM).

`Cn1c(O)c(C=Nc2ccccc2-c2ccccc2)c(=O)n(C)c1=O` came in with a kinetic solubility of less than 0.2 µg/mL.

`C=CCn1c(SCC(=O)N(C)CC(=O)Nc2ccc(C)cc2)nnc1-c1ccncc1` yielded a kinetic solubility of more than 65.5 µg/mL.

`CC1CCCCN1CC(O)c1c[nH]c2ccccc12` (stereo unspecified) came in with a kinetic solubility of more than 38.8 µg/mL.

`O=C(Cn1nc(Cl)nc1Cl)c1ccc([N+](=O)[O-])cc1` registered a kinetic solubility of more than 45.2 µg/mL.

`Cc1cccc(N2CC(C(=O)OCC(=O)Nc3sccc3C(N)=O)CC2=O)c1C` (stereo unspecified) had a solubility (kinetic) of 6.5 µg/mL (≈ 15.6 µM).

On to `Cc1cccc(NC(=O)c2ccc(S(=O)(=O)N(C)c3ccccc3)cc2)n1`, for which the kinetic solubility came out at 11.6 µg/mL (≈ 30.4 µM).

`CCN=C(NCC)SC1CC(=O)N(CCc2ccccc2)C1=O` (stereo unspecified) gave a solubility (kinetic) of 36.3 µg/mL (≈ 109 µM).

For `O=S(=O)(c1ccc(N2CCCC2)nc1)N1CCCC1`, the solubility (kinetic) was 36.4 µg/mL (≈ 129 µM).

Take `CCC1CN(C(=O)NCc2ccc(F)cc2)c2cc(Cl)ccc2O1` (stereo unspecified): the kinetic solubility was found to be 1.3 µg/mL (≈ 3.73 µM).

In turn, `O=C(CCNC(=O)c1ccc(Cl)cc1)NCc1ccco1` yielded a solubility (kinetic) of more than 46 µg/mL.

On to `Cc1ccccc1NC(=S)N/N=C/c1ccc(O)cc1O`, for which the kinetic solubility was more than 45.2 µg/mL.

Turning to `CS(=O)(=O)Nc1ccc(C(=O)Nc2ccccc2-c2ccccc2)cc1`, the solubility (kinetic) stood at 42.4 µg/mL (≈ 116 µM).

`COc1ccc(C(=O)/C=C2/C(=O)Nc3ccccc32)cc1OC` showed a kinetic solubility of 1.2 µg/mL (≈ 3.88 µM).

`CCN1CCN(CC(=O)c2cc(Cl)ccc2Cl)CC1` returned a kinetic solubility of more than 45.2 µg/mL.

As to `Cc1cc(=O)[nH]c(SCC(=O)NCc2ccc3c(c2)OCO3)n1`, the solubility (kinetic) is more than 50 µg/mL.

`COc1cc(OC)c(C2CC(=O)N3CN(C)CSC3=C2C#N)cc1OC` (stereo unspecified) registered a solubility (kinetic) of 43.3 µg/mL (≈ 115 µM).

In the case of `N/C(=N\OC(=O)c1cccc2ccccc12)c1ccccn1`, the solubility (kinetic) turned out to be 38.2 µg/mL (≈ 131 µM).

`Cc1ccc(/C=C/C(=O)OCC(=O)NCc2cccs2)o1`: the kinetic solubility was 21.8 µg/mL (≈ 71.4 µM).

`Cc1ccc(C)n1CCN1CCN(S(=O)(=O)c2ccc(F)cc2F)CC1`: the kinetic solubility worked out at 26.1 µg/mL (≈ 68.1 µM).

Molecule `CC(C)c1ccc(N2C(=O)CC(=O)NC2=O)cc1` had a kinetic solubility of 34.4 µg/mL (≈ 140 µM).

Consider `O=C(c1cccc(Cl)c1)N1CCC(c2nc3ccccc3[nH]2)CC1`, for which the kinetic solubility was determined as 42.6 µg/mL (≈ 125 µM).

As to `Cc1cc2[nH]c(=O)c(=O)[nH]c2cc1S(=O)(=O)NCc1ccccc1`, the solubility (kinetic) is more than 51.8 µg/mL.

The molecule `Cc1nc2c(C)cccn2c(=O)c1NC(=O)c1ccco1` yielded a kinetic solubility of more than 42.5 µg/mL.

Consider `NC(=O)NC(=O)C(Nc1ccc2c(c1)CCC2)c1ccccc1` (stereo unspecified), for which the kinetic solubility is 7.9 µg/mL (≈ 25.5 µM).

In turn, `Cc1ccc(S(=O)(=O)NCCC(=O)Nc2cccc(S(=O)(=O)N3CCCC3)c2)cc1C` came in with a solubility (kinetic) of 30.5 µg/mL (≈ 65.5 µM).

For the molecule `CC1CCc2onc(C(=O)NCc3ccco3)c2C1` (stereo unspecified), the solubility (kinetic) was 22.6 µg/mL (≈ 86.8 µM).

`CCCC(=O)OC/C(O)=C(\C#N)c1nc2ccccc2[nH]1` yielded a kinetic solubility of 32.4 µg/mL (≈ 114 µM).

The kinetic solubility is the concentration staying in solution when a stock, usually in DMSO, is diluted into the medium.
